Measured values published in US8809386B2, “Use of dynamin ring stabilizers” (Children's Medical Research Institute, priority 2009, dated 2014).

Key:
[1] = test system: mouse expressing ‘gain of function’ α-actinin 4 mutant protein; test: Proteinuria in mouse expressing gain of function α-actinin 4 mutant; type: in vivo; conditions: IP, 166 μg/100 g body weight, up to 6 hours after administration, FIG. 20
Experimental: FIG. […] Proteinuria was measured using mouse Albumin-specific ELISA and Creatinine Companion assay kits (Exocell and Bethyl Laboratories) following manufacturer's protocols.
Mice expressing a ‘gain of function’ mutation in the ACTN4 gene encoding for α-actinin 4 has been fully characterized (Kaplan et al. 2000; Henderson et al. 2008; Yao et al. 2004). These animals develop FP effacement and proteinuria due to “hyper bundling” activity of α-actinin 4 mutant that induces aggregation of stress fibers. Proteinuria develops at 4-6 weeks of age. The animals used in the present study were obtained from Dr. Martin Pollak, Brigham and Women's Hospital, Boston, Mass., USA. Proteinuric phenotype was confirmed by determination of urinary albumin and creatinine using mouse Albumin-specific ELISA and Creatinine Companion assay kits (Exocell and Bethyl Laboratories) following the manufacturer's protocols. The control animal was a litermate. Bis-T-23 was dissolved in 100% DMSO to make a 10 μg/μl stock solution, of which 5 μl was diluted in 200 μl of 1×PBS, and this was injected intraperitoneally (IP) into the test animal (166 μg/100 g body weight) at time 0 hr. Protein levels in the urine were measured every 2 hours post injection.

[2] = target: T1, full length dynamin I (Ovis aries, UniProt A0ACI6NZN1); test: Basal dynamin GTPase activity in the absence of PS liposomes or other template (ring stabilizer activity); type: biochemical, sheep
T1 sequence (A0ACI6NZN1 1-864): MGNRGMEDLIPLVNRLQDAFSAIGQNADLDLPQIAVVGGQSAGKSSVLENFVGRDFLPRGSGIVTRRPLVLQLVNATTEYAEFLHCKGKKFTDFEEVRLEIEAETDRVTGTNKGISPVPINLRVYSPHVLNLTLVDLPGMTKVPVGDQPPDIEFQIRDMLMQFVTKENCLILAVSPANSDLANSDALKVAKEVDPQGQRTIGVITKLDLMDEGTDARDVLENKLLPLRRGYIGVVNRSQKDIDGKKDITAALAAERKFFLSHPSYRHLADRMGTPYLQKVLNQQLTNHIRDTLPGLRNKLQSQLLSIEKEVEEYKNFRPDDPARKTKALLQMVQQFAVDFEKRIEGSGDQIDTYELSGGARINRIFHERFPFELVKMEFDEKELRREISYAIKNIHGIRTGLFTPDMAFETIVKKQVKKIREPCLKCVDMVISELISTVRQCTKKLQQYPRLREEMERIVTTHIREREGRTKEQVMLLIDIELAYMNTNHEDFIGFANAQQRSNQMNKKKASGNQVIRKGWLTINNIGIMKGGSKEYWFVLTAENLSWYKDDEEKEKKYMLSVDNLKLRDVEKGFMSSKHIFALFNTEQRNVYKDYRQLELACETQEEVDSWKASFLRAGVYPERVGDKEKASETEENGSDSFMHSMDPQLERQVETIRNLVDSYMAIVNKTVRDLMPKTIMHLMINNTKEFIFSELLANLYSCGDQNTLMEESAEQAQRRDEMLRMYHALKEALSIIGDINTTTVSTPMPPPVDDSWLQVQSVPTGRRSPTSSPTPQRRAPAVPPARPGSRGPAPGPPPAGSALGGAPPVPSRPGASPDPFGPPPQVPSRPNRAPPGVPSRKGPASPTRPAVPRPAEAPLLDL
Experimental: The compounds were present at the indicated concentrations and the concentration causing half-maximal stimulation is shown as the EC50.
Dynamin I (50 nM) GTPase stimulation was performed in the absence of the detergent Tween-80 (and in the absence of any known activators such as PS liposomes, nanotubes or microtubules). […] The GTPase activity of dynamin I (dynI; 200 nM) was measured in the absence of lipid activators (and in the presence of standard Tween-80 at 0.06%).
A compound (whether a dynamin inhibitor or not) can be identified as a dynamin ring stabilizer by assaying for its capacity to promote accumulation of dynamin rings and/or to inhibit disassembly of dynamin rings. […] GTPase activity of dynamin or dynamin rings can be determined by any conventionally known method (e.g., see Quan and Robinson. 2005). Such conditions include: (a) the absence of a helix assembly template such as liposomes, microtubules or lipid nanotubes, and (b) higher concentrations of dynamin than normally required for detecting template stimulated activity, typically 50-500 nM dynamin instead of 1-20 nM. Thus, ring stabilizer activity can be identified by the ability to stimulate the GTPase activity of full length dynamin in the absence of other stimulatory factors (such as PS liposomes, microtubules or nanotubes). Additional defining characteristics are available but are not essential if the first condition has been met. One such additional characteristic of ring stabilizer activity is that the stimulated activity occurs after a lag phase of a few minutes, rather than being an immediate activation in vitro. […] Such conditions typically mean utilising 50-200 nM dynamin in the absence of a template as distinct from higher concentrations where self-assembly is known to occur without the addition of a dynamin ring stabilizer.
Next, a time course experiment of Bis-T-23 stimulation of dynamin GTPase (FIG. 3) was conducted. […] The lag phase is thought to indicate the time required for dynamin to assemble as rings.

[3] = test system: truncated dynamin I construct known as GG2; test: Basal GTPase activity of assembly-incompetent dynamin construct GG2; type: biochemical; conditions: FIG. 5
Excerpt: FIG. 5 is a graph showing the basal GTPase activity of the truncated dynamin I construct known as GG2, containing only the GTPase domain linked to a small part of the GED domain (Chappie et al 2009). Unlike full length dynamin this construct is known to be unable to self-assemble or to form rings. Bis-T-22 and -23 and imminodyn-22 have no effect on the basal activity of this assembly-incompetent construct.
To verify that ring stabilizers require dynamin oligomerisation, a recombinant form of dynamin, called GG-2, which is dimeric yet is unable to self-associate into higher order oligomers (Chappie et al 2009) was tested. Ring stabilizers are unable to stimulate the basal activity of such constructs (FIG. 5).

N#CC(=Cc1cc(O)c(O)c(O)c1)C(=O)NCCCNC(=O)C(C#N)=Cc1cc(O)c(O)c(O)c1 [Bis-T-23, 2-cyano-N-{3-[2-cyano-3-(3,4,5-trihydroxyphenyl)-acryloylamino]-propyl}-3-(3,4,5-trihydroxyphenyl)-acrylamide]
proteinuria (urinary albumin and creatinine) [1]: decrease in proteinuria to wild-type levels
lag phase before stimulation of dynamin GTPase activity ([2]; 5 μM, 800 nM dynamin, 30 mM NaCl, FIG. 3): about 4 minutes
stimulation of basal dynamin GTPase activity in the absence of Tween-80 ([2]; Dynamin I 50 nM, no Tween-80, no activators, FIG. 11A): are dynamin ring stabilizers
concentration causing 50% activation of basal dynamin activity (EC50) ([2]; FIG. 2, compared with IC50 of 500 nM): about the same value
dynamin concentration at which basal GTPase activity is stimulated ([2]; absence of liposomes, 5 μM, FIG. 1): ≥ 100 nM
effect on basal GTPase activity of GG2 [3]: no effect
